Laboratory results taken from PMC9916969 (International Journal of Molecular Sciences, 2023).
Where two headings read alike, the source gives them in different places.

Assays:
FRAP assay = conditions: Trolox equivalents; 60 min, 37 °C; n.a. = not active
Experimental: The Ferric Reducing Antioxidant Power (FRAP) test involves reduction of the ferric 2,4,6-tripyridyl-s-triazine complex [Fe(TPTZ)2]^3+ to an intense-blue ferrous complex [Fe(TPTZ)2]^2+ [92], as previously reported. Results are given as Trolox Equivalents (TE).
The FRAP (ferric reducing antioxidant power) assay proposed by Benzie and Strain [92] was modified to be performed in 96-well microplates as described in detail in [53]. The FRAP reagent contained 2.5 mL of 10 mM TPTZ (2,4,6-tris(2-pyridyl)-s-triazine, Sigma-Aldrich) solution in 40 mM HCl, 2.5 mL of 20 mM FeCl3 (Sigma-Aldrich) in distilled water and 25 mL of 0.3 M acetate buffer (pH 3.6). Aliquots of 10 µL of the test compound dissolved in DMSO (0.5 mM) were placed in quadruplicate. Absorbance was measured at a wavelength of 593 nm after 60 min incubation at 37 °C. In each case, Trolox was used as a reference compound to obtain the standard curve. The AO activity was calculated with respect to the activity of Trolox and expressed as Trolox equivalents (TE)—the values calculated as the ratio of the concentrations of Trolox and the test compound resulting in the same effect on ferric reducing activity.

porcine liver CES = experiment: In vitro CES inhibition (4-NPA substrate); format: biochemical; conditions: compound 20 µM, n.a. = not active
Excerpt: (§1) Assessment of the esterase profile of new potential anti-AD molecules enables the estimation of both the primary pharmacological effects of the tested compounds—their inhibition of AChE and BChE—and their possible unwanted side effect—inhibition of CES, which hydrolyzes numerous ester-containing drugs. For the esterase profile evaluation, human erythrocyte AChE, equine serum BChE, and porcine liver CES were used. These sources of BChE and CES were employed because of their relatively low cost, high sequence identity to human enzymes, and the exploratory character of this work.
(§2) Chromophore absorbances were measured with a FLUOStar Optima microplate reader (BMG Labtech, Ortenberg, Germany). […] Initially, we used a single concentration of 20 µM for all compounds.

β-amyloid (1–42) (Aβ42) = β-amyloid (1–42) (Aβ42) (Homo sapiens, UniProt P05067); experiment: Inhibition of Aβ42 self-aggregation (thioflavin T); format: biochemical; conditions: read-out: Inhibition of Aβ42 Self-Aggregation
Chain of β-amyloid (1–42) (Aβ42) (P05067 672-713 limits assumed): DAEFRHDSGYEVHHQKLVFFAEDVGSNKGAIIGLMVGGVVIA
Experimental: The inhibitory activity of tested hybrids against the self-aggregation of Aβ42 was determined in vitro using the thioflavin T (ThT) fluorimetric assay. According to [84], the ThT test is ideal for preliminary screening of inhibitors of Aβ42 self-aggregation, as it enables the quantitative testing of large numbers of compounds within a relatively short time.
The influence of the inhibitory effect of the test compounds toward Aβ42 self-aggregation was determined using the thioflavin T (ThT) fluorescence method with minor modifications. This assay is based on a specific interaction between the fluorescent dye thioflavin T that binds to the β-sheets of assembled amyloid fibrils leading to a significant increase in fluorescence signal. Therefore, the decrease in ThT fluorescence correlates with the ability of the studied compounds to inhibit the formation of amyloid aggregates.
One mg of lyophilized HFIP-pretreated Aβ42 from BACHEM (Bubendorf, Switzerland) was dissolved in DMSO to obtain a stable initial solution ([Aβ42] = 500 μM); then it was aliquoted and stored at −20 °C.
For the measurement of Aβ42 self-aggregation and amyloid fibril inhibition studies by the tested compounds, aliquots of 500 μM Aβ42 stock solution were diluted in 215 mM Na-phosphate buffer pH = 8.0 to a final concentration of 50 μM Aβ42. Then the samples were incubated for 24 h at 37 °C without stirring in the absence (base level of Aβ42 self-aggregation, control) or presence of the test compounds. Myricetin and propidium iodide were used as reference compounds (positive controls). All compounds were used in a concentration of 100 µM. To quantify Aβ42 fibril formation, after incubation, 5 μM ThT in 50 mM glycine-NaOH buffer pH 8.5 was added to the solutions to a final concentration of 4 μM ThT and the fluorescence was measured at 440 nm (excitation) and 485 nm (emission). Analyses were performed with a FLUOStar Optima microplate reader (LabTech, Ortenberg, Germany). The blanks consisted of 215 mM Na-phosphate buffer, pH = 8.0, 20% (v/v) DMSO or test compounds, respectively. Each assay was run in triplicate.

EeAChE PAS = molecular target: T1, EeAChE PAS (Electrophorus electricus, UniProt O42275); format: binding; conditions: compound 20 µM; EeAChE 7 µM; propidium iodide 8 µM
T1 construct: The enzyme was electric eel AChE (EeAChE type VI-S, lyophilized powder, Sigma-Aldrich); purchased Sigma-Aldrich type VI-S; host or cells: electric eel (tissue-derived)
T1 sequence (O42275 24-633): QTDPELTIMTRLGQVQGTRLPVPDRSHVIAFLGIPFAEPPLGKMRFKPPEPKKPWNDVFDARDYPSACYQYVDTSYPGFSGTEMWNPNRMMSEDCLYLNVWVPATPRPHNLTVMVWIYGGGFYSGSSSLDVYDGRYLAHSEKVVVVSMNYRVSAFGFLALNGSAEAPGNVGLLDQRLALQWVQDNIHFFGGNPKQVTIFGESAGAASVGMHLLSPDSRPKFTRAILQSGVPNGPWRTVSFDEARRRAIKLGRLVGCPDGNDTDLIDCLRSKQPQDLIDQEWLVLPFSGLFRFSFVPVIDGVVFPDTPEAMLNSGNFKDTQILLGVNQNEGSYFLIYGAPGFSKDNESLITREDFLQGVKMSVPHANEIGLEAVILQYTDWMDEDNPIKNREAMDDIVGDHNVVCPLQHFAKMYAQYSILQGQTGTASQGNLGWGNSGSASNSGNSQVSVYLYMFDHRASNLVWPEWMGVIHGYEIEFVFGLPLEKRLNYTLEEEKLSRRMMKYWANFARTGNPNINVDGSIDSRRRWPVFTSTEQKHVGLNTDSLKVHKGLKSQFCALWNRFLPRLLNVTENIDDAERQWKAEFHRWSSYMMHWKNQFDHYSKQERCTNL
Excerpt: This method is widely used as a screening approach to assess the potential ability of compounds to block AChE-induced β-amyloid aggregation. This is because when the compounds bind to the AChE PAS, they prevent the binding of β-amyloid, thereby inhibiting its aggregation.
The enzyme was electric eel AChE (EeAChE type VI-S, lyophilized powder, Sigma-Aldrich). We selected this source of AChE for consistency with our other reports and because of the purity, specific activity, and lower cost compared to human AChE.
Propidium iodide (final concentration 8 μM) was then added for a further 15 min incubation, and the fluorescence spectrum was taken (530 nm excitation and 600 nm emission) using a FLUOStar Optima microplate reader. The same concentration of propidium iodide in the Tris buffer was used as the blank. Triplicate determinations were recorded and the results were calculated via the following equation:% Displacement = 100 − (IFAChE+ Propidium + inhibitor/IFAChE + Propidium) × 100, where IFAChE + Propidium = fluorescence intensity of propidium iodide associated with AChE in the absence of the test compound (taken as 100%), and IFAChE + Propidium + inhibitor = fluorescence intensity of propidium iodide associated with AChE in the presence of the test compound.

[1] = Metal chelation by UV-Vis spectroscopy, Cu2+; conditions: ethanol, 25 °C; compound and metal 40 μM; difference spectra; two bands per compound
human erythrocyte AChE = molecular target: T2, human erythrocyte AChE (Homo sapiens, UniProt P22303); experiment: biochemical; conditions: mean ± SEM, n = 3, read-out: Inhibitory activity against AChE, IC50
T2 construct: human erythrocyte AChE, equine serum BChE, and porcine liver CES were used; purchased Sigma-Aldrich; host or cells: human erythrocytes (tissue-derived)
T2 sequence (P22303 32-617 isoform P22303-2 limits assumed): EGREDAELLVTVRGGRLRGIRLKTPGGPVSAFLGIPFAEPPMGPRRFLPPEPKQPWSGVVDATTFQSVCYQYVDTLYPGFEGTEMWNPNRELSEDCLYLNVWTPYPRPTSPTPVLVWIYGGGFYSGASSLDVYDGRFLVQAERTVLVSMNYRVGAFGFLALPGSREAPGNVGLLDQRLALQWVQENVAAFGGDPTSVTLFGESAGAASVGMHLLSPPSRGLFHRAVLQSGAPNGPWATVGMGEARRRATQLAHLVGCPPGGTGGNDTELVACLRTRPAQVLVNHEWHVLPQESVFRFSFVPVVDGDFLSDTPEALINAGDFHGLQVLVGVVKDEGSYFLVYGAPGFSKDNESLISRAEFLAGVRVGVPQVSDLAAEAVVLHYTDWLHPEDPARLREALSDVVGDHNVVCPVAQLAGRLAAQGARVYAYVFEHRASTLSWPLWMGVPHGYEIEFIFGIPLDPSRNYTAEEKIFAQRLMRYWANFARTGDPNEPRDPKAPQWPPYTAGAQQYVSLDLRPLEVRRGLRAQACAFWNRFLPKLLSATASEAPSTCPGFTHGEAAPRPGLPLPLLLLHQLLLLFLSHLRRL
Excerpt: as §1, §2

equine serum BChE = molecular target: T3, equine serum BChE (Equus caballus, UniProt P81908); experiment: biochemical; conditions: mean ± SEM, n = 3, read-out: Inhibitory activity against BChE, IC50
T3 construct: human erythrocyte AChE, equine serum BChE, and porcine liver CES were used; purchased Sigma-Aldrich; host or cells: equine serum (tissue-derived)
T3 sequence (P81908 whole entry): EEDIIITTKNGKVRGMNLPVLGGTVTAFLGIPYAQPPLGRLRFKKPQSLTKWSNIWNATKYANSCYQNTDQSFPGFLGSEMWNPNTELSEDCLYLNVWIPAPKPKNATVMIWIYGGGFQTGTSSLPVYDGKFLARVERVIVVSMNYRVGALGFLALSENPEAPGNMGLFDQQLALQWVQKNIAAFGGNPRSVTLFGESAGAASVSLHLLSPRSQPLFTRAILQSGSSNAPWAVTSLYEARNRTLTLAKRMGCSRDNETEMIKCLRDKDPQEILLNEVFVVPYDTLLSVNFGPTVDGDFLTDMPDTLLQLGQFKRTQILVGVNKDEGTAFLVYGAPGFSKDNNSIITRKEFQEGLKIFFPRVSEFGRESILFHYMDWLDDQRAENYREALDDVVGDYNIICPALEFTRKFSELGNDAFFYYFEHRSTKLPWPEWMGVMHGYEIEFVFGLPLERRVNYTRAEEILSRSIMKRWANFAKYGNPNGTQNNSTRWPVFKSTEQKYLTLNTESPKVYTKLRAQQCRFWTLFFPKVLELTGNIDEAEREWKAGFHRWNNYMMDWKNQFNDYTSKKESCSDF
Excerpt: as §1, §2

eqBChE = molecular target: T4, eqBChE (Equus caballus, UniProt P81908); experiment: Kinetic study of BChE inhibition (Lineweaver-Burk); format: biochemical; conditions: for αKi (non-competitive inhibition constant), eqBChE: mixed-type inhibition, mean ± SEM; for Ki: read-out: Ki (competitive inhibition constant), eqBChE
T4 construct: human erythrocyte AChE, equine serum BChE, and porcine liver CES were used; purchased Sigma-Aldrich; host or cells: equine serum (tissue-derived)
T4 sequence (P81908 whole entry): as above
Experimental: Similar results were obtained for other tested compounds (Figures S61 and S62). The obtained values of inhibition constants (Ki = competitive component and αKi = non-competitive component) are shown in Table 2.
(§3) We assessed the mechanisms of AChE and BChE inhibition by performing a thorough analysis of enzyme kinetics. After a 5 min incubation at 25 °C (for temperature equilibration) with three increasing concentrations of inhibitor and six decreasing substrate concentrations, the residual enzyme activity was measured as described above for enzymatic assays.

AChE = molecular target: T5, AChE (Homo sapiens, UniProt P22303); experiment: Kinetic study of AChE inhibition (Lineweaver-Burk); format: biochemical; conditions: for αKi (non-competitive inhibition constant), AChE: mixed-type inhibition, mean ± SEM; for Ki: read-out: Ki (competitive inhibition constant), AChE
T5 construct: human erythrocyte AChE, equine serum BChE, and porcine liver CES were used; purchased Sigma-Aldrich; host or cells: human erythrocytes (tissue-derived)
T5 sequence (P22303 32-617 isoform P22303-2 limits assumed): as the sequence (P22303 32-617 isoform P22303-2 limits assumed) above
Experimental: as §3

in vitro = format: cell-based; conditions: mouse
Experimental: […]. Accordingly, in the present work, we paid special attention to the study of the cytotoxic activity of compounds on primary cultures of mouse hepatocytes using standard MTT methodology.
The cytotoxicity of the compounds was evaluated using a primary culture of mouse hepatocytes isolated at the Center for Biotechnology and Bioengineering, Ural Federal University, Ekaterinburg, Russia, according to the standard method. Cells were seeded in 96-well plates in the inoculum dose of 1 × 10^4 cells/mL and cultured for 24 h in Dulbecco’s Modified Eagle Medium (DMEM), with 1% (w/v) glutamine in the presence of 10% (v/v) fetal bovine serum and gentamicin (50 mg/L) at 37 °C, with a humidified atmosphere of 5% (v/v) CO2. Cell viability was assessed using the standard MTT assay. The compounds were dissolved in DMSO and then in a nutrient medium, after which they were added to the wells with cells at final concentrations of 10^−7, 10^−6, 10^−5, and 10^−4 M. Hepatocytes were exposed to test compounds for 24 h at 37 °C, 95% relative humidity and 5% (v/v) CO2 atmosphere. After incubation, the medium was replaced with 100 μL of fresh medium containing MTT (0.5 mg/mL). The plates were then incubated at 37°C in a CO2 incubator for 2 h. Then the medium with MTT was removed and DMSO was added to dissolve the formazan crystals.
The results of the MTT assay were evaluated on a Tecan Infinite M200 PRO (Tecan Austria GmbH, Grödig, Austria) plate spectrophotometer at 570 nm by comparing the optical density of a formazan solution in the assay and control wells. The cell viability was expressed as the percentage of untreated control. The results were obtained from three independent experiments performed in six replicates. The IC50 (μM) values were calculated by the AAT Bioquest-calculator: (https://www.aatbio.com/tools/ic50-calculator, accessed on 1 December 2022) and expressed as a mean ± standard error of the mean (SEM). Statistical analysis was carried out using Microsoft Excel 2007 (Microsoft Corporation, Redmond, WA, USA) and Statistica 2009 (Tulsa, OK, USA) programs.

[2] = ABTS radical cation scavenging assay; design: key to ABTS^•+ Scavenging Activity, TEAC: TEAC: ratio of compound slope to Trolox slope (Trolox equivalents); conditions: 1 h incubation
Experimental: In the ABTS assay, the dark-green ABTS cation-radical (ABTS^•+) is quenched by interaction with AOs. The consequent decrease in absorbance is followed spectrophotometrically per the previously described method.
Radical scavenging activity of the compounds was assessed using the ABTS radical cation (ABTS^•+) decolorization assay with some modifications. ABTS (2,2′-azinobis-(3-ethylbenzothiazoline-6-sulfonic acid) was purchased from Tokyo Chemical Industry Co., Ltd. (Tokyo, Japan); potassium persulfate (dipotassium peroxodisulfate), Trolox (6-hydroxy-2,5,7,8-tetramethylchroman-2-carboxylic acid), and HPLC-grade ethanol and DMSO were obtained from Sigma-Aldrich (Saint Louis, MO, USA). Aqueous solutions were prepared using deionized water. All tested compounds were dissolved in DMSO.
The solution of cation radical ABTS^•+ was produced by incubation of an aqueous solution of 7 mM ABTS and 2.45 mM potassium persulfate solution in equal quantities for 12–16 h at room temperature in the dark. Radical scavenging capacity of the compounds was analyzed by mixing 10 μL of compound with 240 μL of ABTS^•+ working solution in ethanol (100 μM final concentration). The reaction was monitored for an hour at 30 °C with an interval of 10 min. Data are given for 1 h of incubation of compounds with ABTS^•+. The reduction in absorbance was measured spectrophotometrically at 734 nm using an xMark microplate UV/VIS spectrophotometer (Bio-Rad, Hercules, CA, USA). Ethanol blanks were run in each assay. Values were obtained from five replicates of each sample and three independent experiments.
The standard AO Trolox was used as a reference compound. AO capacity as Trolox equivalent (TEAC) values was determined as the ratio between the slopes obtained from the linear correlation of the ABTS radical absorbance with the concentrations of tested compounds and Trolox. Ascorbic acid was used as a positive control. […]. The compounds were tested in the concentration range of 0.5–100 µM.

[3] = Aβ42 50 µM, compound 100 µM, 24 h, 37 °C, thioflavin T

Row | Compound | FRAP, TE (FRAP assay) | Inhibitory activity against CES, inhibition at 20 µM (porcine liver CES) [%] | inhibition at 100 µM (β-amyloid (1–42) (Aβ42); [3]) [%] | Propidium Displacement from EeAChE PAS (EeAChE PAS) [%] | Shift of Absorbance, Cu(II) [1] [nm] | IC50 (human erythrocyte AChE) [nM] | IC50 (equine serum BChE) [nM] | αKi (non-competitive inhibition constant), eqBChE (eqBChE) [µM] | Ki (eqBChE) [nM] | αKi (non-competitive inhibition constant), AChE (AChE) [µM] | Ki (AChE) [nM] | IC50 at 24 h (in vitro) [nM] | IC50 ([2]; 50% reduction of ABTS radical cation) [nM] | ABTS^•+ Scavenging Activity, TEAC ([2]; Trolox equivalent, n.a. = not active) | inhibition at 100 µM (β-amyloid (1–42) (Aβ42)) [%]
1 | COc1ccccc1C(=O)NCCCCCCNc1c2c(nc3ccccc13)CCCC2 [6b] | 0.02 | 8.0 ± 1.3 | 30.8 ± 2.1 | 12.5 ± 0.8 | 254 | 646 ± 41 | 37.7 ± 3.1 | – | – | – | – | – | – | – | –
2 | COc1ccccc1C(=O)NCCCCCCCCNc1c2c(nc3ccccc13)CCCC2 [6c] | – | 10.6 ± 1.2 | 55.6 ± 4.4 | 14.1 ± 0.9 | – | 150 ± 11 | 47.5 ± 3.2 | 0.0314 ± 0.0025 | 18.8 ± 1.1 | 0.213 ± 0.012 | 104 ± 4 | 3810 ± 70 | – | – | –
3 | COc1cc(F)c(F)cc1C(=O)NCCCCCCNc1c2c(nc3ccccc13)CCCC2 [8b] | 0.02 | 6.3 ± 0.9 | 29.7 ± 2.3 | 13.8 ± 0.9 | – | 712 ± 67 | 70.2 ± 4.2 | – | – | – | – | 3950 ± 220 | – | – | –
4 | COc1cc(F)c(F)cc1C(=O)NCCCCCCCCNc1c2c(nc3ccccc13)CCCC2 [8c] | 0.02 | 19.8 ± 3.1 | 54.1 ± 4.3 | 15.1 ± 1.2 | – | 142 ± 11 | 31.7 ± 2.4 | 0.0187 ± 0.0013 | 17.7 ± 0.7 | 0.0998 ± 0.0058 | 53.6 ± 2.5 | – | – | – | –
5 | Oc1ccccc1/C=N/CCCCCCNc1c2c(nc3ccccc13)CCCC2 [10b] | 0.03 | 17.9 ± 0.8 | 67.9 ± 5.4 | 18.2 ± 1.4 | 255 | 103 ± 6 | 35.4 ± 1.7 | – | – | – | – | – | 31800 ± 1600 | 0.47 ± 0.04 | –
6 | Nc1c2c(nc3ccccc13)CCCC2 [Tacrine, reference compound] | – | – | – | – | – | – | – | – | – | – | – | 3780 ± 150 | – | – | 5.9 ± 0.5
